The target in one assay is T1, rat CB2 receptor (rCB2) (Rattus norvegicus, UniProt Q9QZN9).
T1 sequence (Q9QZN9 1-360): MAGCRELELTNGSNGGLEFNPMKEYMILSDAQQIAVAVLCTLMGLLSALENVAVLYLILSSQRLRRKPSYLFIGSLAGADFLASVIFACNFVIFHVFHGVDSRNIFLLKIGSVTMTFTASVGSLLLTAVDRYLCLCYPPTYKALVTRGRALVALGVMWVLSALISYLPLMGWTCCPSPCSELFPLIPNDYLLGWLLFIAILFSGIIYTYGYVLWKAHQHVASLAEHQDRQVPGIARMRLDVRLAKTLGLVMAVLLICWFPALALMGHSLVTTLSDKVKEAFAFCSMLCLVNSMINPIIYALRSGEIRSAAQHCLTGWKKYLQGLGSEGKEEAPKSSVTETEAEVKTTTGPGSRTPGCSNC
In words: cell-based. The assay is classed as cell-based. As to conditions: for +/− RCB2: agonist or inverse agonist at rCB2. The protocol:
(§1) The ability of compounds to act as agonists or inverse agonists at human CB2 and CB1 receptors (hCB2, hCB1, respectively) and at the rat CB2 receptor (rCB2) was determined by measuring changes in intracellular cAMP levels. Chinese Hamster Ovary (CHO-K1) cell lines stably expressing hCB2 (Genebank: X74328) or hCB1 (Genebank: X54937) were purchased from Euroscreen (Gosselies, Belgium). The rat CB2 receptor was expressed from genomic DNA (provided by M. Abood, California Pacific Medical Center) in CHO-K1 cells from expression plasmid vector, pcDNA3.1.
(§2) Cell lines were grown in suspension in EX-CELL 302 CHO Serum-free medium (Sigma, cat #14324C) supplemented with 1% Fetal Bovine Serum, glutamine and non-essential amino-acids under 0.4 mg/mL G418 selection.
(§3) Receptor mediated responses were determined by measuring changes in intracellular cAMP using LANCE cAMP detection kit (cat #AD0264, Perkin Elmer, Wellesley, Mass.) based on time-resolved fluorescence resonance energy transfer (TR-FRET). Changes in cAMP were determined in cells pre-incubated with IBMX (isobutyl methylxanthine) and prestimulated with NKH-477 (a water soluble forskolin derivative, cat #1603, Tocris, Ellisville, Mo.) to increase basal cAMP levels as detailed below.
(§4) On the day of the experiment, cells were spun at low speed for 5 min at room temperature. The supernatant was removed and cells were resuspended in stimulation buffer (Hanks Buffered Salt Solution/5 mM HEPES, containing 0.5 mM IBMX (cat #17018, Sigma) and 0.02% BSA (Perkin-Elmer, cat #CR84-100)). Cell clumps were removed by filtering through cell strainer 40 μm (BD Falcon, Discovery Labware, Bedford, Mass.) and diluted to 2×10^5 cells/mL. Antibody supplied with the LANCE cAMP immunoassay kit was then added according to the manufacturer's instructions. An aliquot of cells was taken for un-induced controls. To the remaining cells was added NKH-477 (a water soluble forskolin derivative, Tocris cat #1603) to a final concentration of 2-8 μM. Cells were then incubated for 30 min at room temperature prior to adding to Proxiplates containing test compounds (final DMSO concentration was less than 0.5%) with a Multidrop bulk dispenser, followed by a sixty minute incubation at room temperature. The response was stopped by addition of the detection mix supplied with the LANCE kit. The reagents were allowed to equilibrate for three hours prior to reading on an Envision multi-mode detector (Perkin-Elmer). TR-FRET was measured using a 330-380 nm excitation filter, a 665 nm emission filter, dichroic mirror 380 nm and Z=1 mm. Cyclic AMP concentrations in each well were back-calculated from a cAMP standard curve run concurrently during each assay. Each plate contained 16 wells of forskolin stimulated cells and 16 wells of forskolin plus CP55,940-treated cells. Cells were treated with 1 μM CP55,940 (Tocris cat. #0949). Concentrations of cAMP were expressed as a percent of the difference of these two groups of wells. Concentration-response data including EC50 (the concentration of compound producing 50% of the maximal response) and intrinsic activity (the percent maximal activation compared to full activation by CP55,940) were determined using a four-parameter non-linear regression algorithm (Xlfit equation 251, IDBS).

Assay [1] concerns the target human CB1 receptor (hCB1) (Homo sapiens, UniProt P21554). In words: cell-based. Format: cell-based. To be noted: for +/− HCB1: agonist or inverse agonist at hCB1. The protocol:
as §1, §2, §3, §4

Where [2] appears, read: groups >100 nM-10 μM and >10 μM, cAMP, CHO-K1 hCB1, read-out: EC50 HCB1.

Read-outs that look alike come from different tables or passages of the source.

For orientation: EC50 means the concentration at which the effect is half-maximal.

Chain of human CB1 receptor (hCB1) (P21554 whole entry): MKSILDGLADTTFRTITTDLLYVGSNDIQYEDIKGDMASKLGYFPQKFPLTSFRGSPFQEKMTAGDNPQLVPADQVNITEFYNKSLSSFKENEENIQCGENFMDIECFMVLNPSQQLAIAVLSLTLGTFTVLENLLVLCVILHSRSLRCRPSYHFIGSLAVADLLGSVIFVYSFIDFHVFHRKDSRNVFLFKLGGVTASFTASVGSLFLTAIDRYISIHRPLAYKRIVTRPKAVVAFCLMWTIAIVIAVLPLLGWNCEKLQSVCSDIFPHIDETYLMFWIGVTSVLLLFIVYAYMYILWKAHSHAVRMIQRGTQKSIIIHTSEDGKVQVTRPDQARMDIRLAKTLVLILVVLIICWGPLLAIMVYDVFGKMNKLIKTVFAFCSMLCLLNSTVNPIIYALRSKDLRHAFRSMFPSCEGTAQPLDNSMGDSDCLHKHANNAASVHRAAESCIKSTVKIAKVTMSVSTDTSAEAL

Turning to `CNC(=O)[C@H](CC(C)(C)C)NC(=O)c1nc(-c2ccc(F)cc2)n2c1CN(C)CCC2` [Compound 547, (S)-N-(4,4-dimethyl-1-(methylamino)-1-oxopentan-2-yl)-3-(4-fluorophenyl)-8-methyl-6,7,8,9-tetrahydro-5H-imidazo[1,5-a][1,4]diazepine-1-carboxamide], the “+/− RCB2” value at rat CB2 receptor (rCB2) was “+”. Besides, in assay [1], the “+/− HCB1” value is recorded as “+”.

Regarding `CCS(=O)(=O)N1CCn2c(-c3ccc(Cl)cc3)nc(C(=O)NCCC(C)C)c2C1` [Compound 116, 3-(4-chlorophenyl)-7-(ethylsulfonyl)-N-isopentyl-5,6,7,8-tetrahydroimidazo[1,5-a]pyrazine-1-carboxamide], the “+/− RCB2” value at rat CB2 receptor (rCB2) is “−”. Also, the EC50 in assay [1] was > 10000 nM.

As to `CN1CCn2c(-c3ccc(Cl)cc3F)nc(C(=O)N3CCC(n4cc(-c5ccccc5)[nH]c4=O)CC3)c2C1` [Compound 227, 1-(1-(3-(4-chloro-2-fluorophenyl)-7-methyl-5,6,7,8-tetrahydroimidazo[1,5-a]pyrazine-1-carbonyl)piperidin-4-yl)-4-phenyl-1H-imidazol-2(3H)-one], on rat CB2 receptor (rCB2), the “+/− RCB2” value is given as “−”. In assay [1] (setting [2]), the EC50 is > 10000 nM.

As for `CNC(=O)[C@@H](NC(=O)c1nc(-c2ccc(F)c(OC)c2)n2c1CN(C)CCC2)C(C)(C)C` [Compound 393, (S)-N-(3,3-dimethyl-1-(methylamino)-1-oxobutan-2-yl)-3-(4-fluoro-3-methoxyphenyl)-8-methyl-6,7,8,9-tetrahydro-5H-imidazo[1,5-a][1,4]diazepine-1-carboxamide], the “+/− RCB2” value on rat CB2 receptor (rCB2) is given as “+”. The EC50 in assay [1] is > 10000 nM.

For the molecule `CNC(=O)[C@@H](NC(=O)c1nc(-c2ccc(Cl)cc2)n2c1CN(C)CC2)C(C)(C)C` [Compound 49, (S)-3-(4-chlorophenyl)-N-(3,3-dimethyl-1-(methylamino)-1-oxobutan-2-yl)-7-methyl-5,6,7,8-tetrahydroimidazo[1,5-a]pyrazine-1-carboxamide], the “+/− RCB2” value at rat CB2 receptor (rCB2) is reported as “−”. The EC50 in assay [1] is > 10000 nM.

As to `CN1CCn2c(-c3ccc(Cl)cc3F)nc(C(=O)N3CCC(n4c(=O)[nH]c5cc(Cl)ccc54)CC3)c2C1` [Compound 212, 5-chloro-1-(1-(3-(4-chloro-2-fluorophenyl)-7-methyl-5,6,7,8-tetrahydroimidazo[1,5-a]pyrazine-1-carbonyl)piperidin-4-yl)-1H-benzo[d]imidazol-2(3H)-one], at rat CB2 receptor (rCB2), the “+/− RCB2” value is recorded as “−”. Further, the concentration for a half-maximal effect (EC50) in assay [1] (setting [2]) is > 10000 nM.

For the molecule `O=C(NN1CCCCC1)c1nc(-c2ccccc2)n2c1CN(CCO)CC2` [Compound 156, 7-(2-hydroxyethyl)-3-phenyl-N-(piperidin-1-yl)-5,6,7,8-tetrahydroimidazo[1,5-a]pyrazine-1-carboxamide], the “+/− RCB2” value on rat CB2 receptor (rCB2) was “−”. In addition, in assay [1] (setting [2]), the EC50 is > 10000 nM.

`CNC(=O)[C@@H](NC(=O)c1nc(C2CCCCC2)n2c1CN(C)CC2)C(C)(C)C` [Compound 305, (S)-3-cyclohexyl-N-(3,3-dimethyl-1-(methylamino)-1-oxobutan-2-yl)-7-methyl-5,6,7,8-tetrahydroimidazo[1,5-a]pyrazine-1-carboxamide]: on rat CB2 receptor (rCB2), the “+/− RCB2” value is “+”. The EC50 in assay [1] is > 10000 nM.

Take `CCCNC(=S)N1CCn2c(-c3ccccc3)nc(C(=O)N[C@H](C(=O)NC)C(C)(C)C)c2C1` [Compound 195, (S)-N-(3,3-dimethyl-1-(methylamino)-1-oxobutan-2-yl)-3-phenyl-7-(propylcarbamothioyl)-5,6,7,8-tetrahydroimidazo[1,5-a]pyrazine-1-carboxamide]: the “+/− RCB2” value on rat CB2 receptor (rCB2) is on record as “−”. In addition, in assay [1], the EC50 is > 10000 nM.

For the molecule `CC(C)CN1CCn2c(-c3ccccc3)nc(C(=O)NC3CCCCC3)c2C1` [Compound 165, N-cyclohexyl-7-isobutyl-3-phenyl-5,6,7,8-tetrahydroimidazo[1,5-a]pyrazine-1-carboxamide], the “+/− RCB2” value on rat CB2 receptor (rCB2) is “−”. Moreover, the EC50 in assay [1] was > 10000 nM.

On to `CNC(=O)[C@@H]1CCCN1C(=O)c1nc(-c2ccccc2)n2c1CNCCC2` [Compound 602], for which the EC50 on rat CB2 receptor (rCB2) was > 10000 nM. Further, the “+/− HCB1” value in assay [1] is “−”.

As to `CNC(=O)[C@@H](NC(=O)c1nc(-c2ccncc2F)n2c1CN(C)CCC2)C(C)(C)C` [Compound 451, (S)-N-(3,3-dimethyl-1-(methylamino)-1-oxobutan-2-yl)-3-(3-fluoropyridin-4-yl)-8-methyl-6,7,8,9-tetrahydro-5H-imidazo[1,5-a][1,4]diazepine-1-carboxamide], the “+/− RCB2” value at rat CB2 receptor (rCB2) is on record as “+”. In addition, in assay [1], the “+/− HCB1” value was “+”.

`Cc1noc([C@@H](NC(=O)c2nc(-c3ccccc3)n3c2CN(C2CC2)CC3)C(C)(C)C)n1` [Compound 198, (S)-7-cyclopropyl-N-(2,2-dimethyl-1-(3-methyl-1,2,4-oxadiazol-5-yl)propyl)-3-phenyl--5,6,7,8-tetrahydroimidazo[1,5-a]pyrazine-1-carboxamide]: at rat CB2 receptor (rCB2), the “+/− RCB2” value is reported as “−”. Further, the EC50 in assay [1] was > 10000 nM.

Take `CCS(=O)(=O)N1CCn2c(-c3ccccc3)nc(C(=O)NC3CCCCC3)c2C1` [Compound 118, N-cyclohexyl-7-(ethylsulfonyl)-3-phenyl-5,6,7,8-tetrahydroimidazo[1,5-a]pyrazine-1-carboxamide]: the “+/− RCB2” value at rat CB2 receptor (rCB2) is reported as “−”. The EC50 in assay [1] is > 10000 nM.

Turning to `CNC(=O)[C@H](CC(C)(C)C)NC(=O)c1nc(-c2ccc(F)cc2F)n2c1CN(C)CCC2` [Compound 549, (S)-3-(2,4-difluorophenyl)-N-(4,4-dimethyl-1-(methylamino)-1-oxopentan-2-yl)-8-methyl-6,7,8,9-tetrahydro-5H-imidazo[1,5-a][1,4]diazepine-1-carboxamide], the EC50 (on rat CB2 receptor (rCB2); in assay [1]) was > 10000 nM in each case.

In the case of `CN1CCn2c(-c3ccccc3)nc(C(=O)NCC(C)(C)CO)c2C1` [Compound 82, N-(3-hydroxy-2,2-dimethylpropyl)-7-methyl-3-phenyl-5,6,7,8-tetrahydroimidazo[1,5-a]pyrazine-1-carboxamide], the EC50 at rat CB2 receptor (rCB2) (groups >100 nM-10 μM and >10 μM, cAMP, CHO-K1 rCB2, read-out: EC50 RCB2) was > 10000 nM; in assay [1] (setting [2]) it was > 10000 nM.

`CC(C)CN1CCn2c(-c3ccccc3)nc(C(=O)NN3CCCCC3)c2C1` [Compound 155, 7-isobutyl-3-phenyl-N-(piperidin-1-yl)-5,6,7,8-tetrahydroimidazo[1,5-a]pyrazine-1-carboxamide]: the “+/− RCB2” value on rat CB2 receptor (rCB2) is “−”. In assay [1], the EC50 is > 10000 nM.

Turning to `CNC(=O)[C@@H](NC(=O)c1nc(-c2cccc(OC)c2F)n2c1CN(C)CCC2)C(C)(C)C` [Compound 346, (S)-N-(3,3-dimethyl-1-(methylamino)-1-oxobutan-2-yl)-3-(2-fluoro-3-methoxyphenyl)-8-methyl-6,7,8,9-tetrahydro-5H-imidazo[1,5-a][1,4]diazepine-1-carboxamide], the “+/− RCB2” value on rat CB2 receptor (rCB2) is “−”. Also, in assay [1], the EC50 is > 10000 nM.

With `CNC(=O)[C@@H](NC(=O)c1nc(-c2ccccc2)n2c1CN(C(=O)c1ccccc1)CCC2)C(C)(C)C` [Compound 462, (S)-8-benzoyl-N-(3,3-dimethyl-1-(methylamino)-1-oxobutan-2-yl)-3-phenyl-6,7,8,9-tetrahydro-5H-imidazo[1,5-a][1,4]diazepine-1-carboxamide], the EC50 (on rat CB2 receptor (rCB2); in assay [1]) was > 10000 nM in each case.

Values taken from patent US7517874B2 (priority 2007, dated 2009).
